Experimental findings from patent EP4813463A2, “TYK2 INHIBITORS AND COMPOSITIONS AND METHODS THEREOF” (Lynk Pharmaceuticals Co. Ltd., priority 2023, dated 2024) are described below.

Where two headings read alike, the source gives them in different places.

Data set [1] deals with Ba/F3-FL-TYK2-P760L cells. Nature of the data set: Anti-proliferative assay in engineered Ba/F3 cells (Cell-Titer Glo, 72 h). Format: cell-based. The note with it: 72 h compound treatment, concentration that causes 50% growth inhibition, read-out: Baf3-FL-T2P760L. In a few lines:
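IC50 from luminescent ATP viability after 72 h compound exposure (37 °C, 5% CO2), % inhibition normalised to DMSO-treated cells minus medium blank. IL-3-free Ba/F3-FL-TYK2-P760L (Tel-JAK fusion) cells in 10% FBS RPMI-1640 received 9 three-fold doses, top 20 µM, 0.1% DMSO.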

In data set [2] the target is T1, JAK1-JH2 domain (Homo sapiens, UniProt P23458).
T1 construct: JAK1-JH2 domain or TYK2-JH2 domain enzyme in assay buffer
T1 sequence (P23458 583-855 limits assumed): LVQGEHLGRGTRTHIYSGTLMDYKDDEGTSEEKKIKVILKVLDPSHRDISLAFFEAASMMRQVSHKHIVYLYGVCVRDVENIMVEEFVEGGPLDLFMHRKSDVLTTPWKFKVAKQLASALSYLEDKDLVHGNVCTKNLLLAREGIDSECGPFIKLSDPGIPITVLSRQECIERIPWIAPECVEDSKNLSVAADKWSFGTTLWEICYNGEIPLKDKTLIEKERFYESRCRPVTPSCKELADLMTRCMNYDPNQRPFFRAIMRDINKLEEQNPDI
Nature of the data set: Binding activity test for JH2 domain of JAK1 (Tb-antibody/tracer FRET). As to conditions: JH2 domain enzyme; 60 min at 25°C, then 4°C overnight; read-out: JAK1 JH2 Binding IC50. A digest of the protocol: (§1)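 IC50 values (nM) come from TR-FRET readings taken after a 25°C incubation followed by overnight at 4°C. Each well held JH2 domain protein, Tb-antibody, tracer and test compound titrated in 11 threefold steps, with DMSO high and low controls.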

Data set [3] addresses T2, TYK2-JH2 domain (Homo sapiens, UniProt P29597).
T2 construct: JAK1-JH2 domain or TYK2-JH2 domain enzyme in assay buffer
Briefly: Binding activity test for JH2 domain of TYK2 (Tb-antibody/tracer FRET). The note with it: for IC50: JH2 domain enzyme, 60 min at 25°C, then 4°C overnight, read-out: TYK2 JH2 Binding IC50; for JAK1/TYK2 selectivity: ratio of JAK1 JH2 to TYK2 JH2 binding IC50. A digest of the protocol: as §1

A short description of data set [4]: Microsomal metabolic stability assay. Format: in vitro ADME. As to conditions: human, liver microsomes, pH 7.4, 0.5 mg/mL microsomal protein, 1 µM test article, 2 mM NADPH; for microsomal CLint at 1 µM: read-out: Human LM Clint; for half-life at 1 µM: read-out: Human LM T1/2. The method, then: Microsomes were pre-incubated with test compound or control compounds for 5 min at 37°C in 100 mM potassium phosphate buffer, pH 7.4, 1.0 mM EDTA. The reaction was initiated by addition of 15 µL of the NADPH regenerating system to 30 µL of each incubation mixture per time point. The final incubation condition was composed of 0.5 mg/mL microsomal protein, 1 µM test article/positive control, 2 mM NADPH. The 0-minute samples were prepared by addition of a 30 µL aliquot of each incubation mixture to 135 µL quench reagent to precipitate proteins. And then a 15 µL aliquot of the NADPH regenerating system was added. At 5, 15, 30 and 45 minutes, the reaction will be stopped by the addition of cold acetonitrile solution containing internal standard. The samples taken at all time points were centrifuged at 5000×g for 15 minutes. 50 µL of supernatant are taken into 96-well assay plates pre-added with 50 µL ultrapure water, and then analyzed by LC/MS/MS.
Concentrations of test articles, control compounds in the samples were determined by using LC/MS/MS method. Plotting of the chromatograms and peak area integrations are carried out by Analyst (AB Sciex).
In the determination of the in vitro elimination constant (ke) of the control compounds, the analyte/internal standard peak area ratios will be converted to percentage remaining (%Remaining) with the following equation: %Remaining = (Peak area ratio of analyte to IS at each time point)/(Peak area ratio of analyte to IS at t = 0) × 100% [formula]
The CLint of microsomes was calculated using the formula: CLint (mic)=0.693/T1/2 /mg microsome protein per mL. The slope was measured by the natural logarithm of the percentage of the residual compound and time, T1/2 was calculated according to the following formula. T = (0.693)/(−slope) [formula]

T2 sequence (P29597 589-875 limits assumed): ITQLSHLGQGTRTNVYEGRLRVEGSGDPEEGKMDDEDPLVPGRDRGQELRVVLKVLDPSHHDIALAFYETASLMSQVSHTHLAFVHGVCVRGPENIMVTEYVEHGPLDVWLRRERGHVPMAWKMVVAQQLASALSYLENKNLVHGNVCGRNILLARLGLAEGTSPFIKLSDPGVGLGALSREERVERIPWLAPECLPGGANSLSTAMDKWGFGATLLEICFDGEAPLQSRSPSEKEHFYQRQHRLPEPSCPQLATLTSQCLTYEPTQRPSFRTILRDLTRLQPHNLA

On to `CCn1nc(Nc2cc(NC(=O)C3CC3)ncc2C(=O)OC)c2c(OC)c(C(OC)C(F)(F)F)ccc21` (single isomer, unassigned) [Example 66B, Methyl (S*)-6-(cyclopropanecarboxamido)-4-((1-ethyl-4-methoxy-5-(2,2,2-trifluoro-1-methoxyethyl)-1H-indazol-3-yl)amino)nicotinate], for which, in data set [1] (Mus musculus, BaF3, 72 h), the IC50 came out at 12.5 nM. In addition, in data set [2], the IC50 was found to be 90.7 nM. In data set [3], the IC50 is 0.13 nM and the JAK1/TYK2 selectivity turned out to be 719.87. Further, in data set [4], the microsomal CLint at 1 µM stood at 14.2 µL/min/mg and the half-life at 1 µM came out at 1.62 h.
On to `[2H]C([2H])([2H])NC(=O)c1cnc(NC(=O)[C@@H]2C[C@@H]2F)cc1Nc1cnn2ccc(COC)c(OC)c12` [Example 17, 6-((1S,2S)-2-fluorocyclopropane-1-carboxamido)-4-((4-methoxy-5-(methoxymethyl)pyrazolo[1,5-a]pyridin-3-yl)amino)-N-(methyl-d3)nicotinamide], for which, in data set [1] (Mus musculus, BaF3, 72 h), the IC50 is 84.3 nM. The IC50 in data set [2] was found to be 12.7 nM. Besides, in data set [3], the IC50 stood at 0.102 nM and the JAK1/TYK2 selectivity is 125.0. For the same compound, in data set [4], the microsomal CLint at 1 µM worked out at 12.3 µL/min/mg and the half-life at 1 µM came to 1.87 h.
Turning to `[2H]C([2H])([2H])NC(=O)c1cnc(NC(=O)C2CC2)cc1Nc1cnn2cnc(OC)c(OC)c12` [Example 35, 6-(Cyclopropanecarboxamido)-4-((4,5-dimethoxypyrazolo[1,5-c]pyrimidin-3-yl)amino)-N-(methyl-d3)nicotinamide], the IC50 in data set [1] (Mus musculus, BaF3, 72 h) worked out at 2340 nM; in data set [2], 92.3 nM; in data set [3] it was 8.27 nM. Besides, the JAK1/TYK2 selectivity in data set [3] is 11.2. Further, the microsomal CLint at 1 µM in data set [4] amounted to 5.72 µL/min/mg. For the same compound, the half-life at 1 µM in data set [4] worked out at 4.04 h.
In the case of `[2H]C([2H])([2H])NC(=O)c1cnc(NC(=O)C2CC2)cc1Nc1cnn2cnc(C(C)C(F)(F)F)c(OC)c12` (stereo not shown) [Example 37, 6-(Cyclopropanecarboxamido)-4-((4-methoxy-5-(1,1,1-trifluoropropan-2-yl)pyrazolo[1,5-c]pyrimidin-3-yl)amino)-N-(methyl-d3)nicotinamide], in data set [1] (Mus musculus, BaF3, 72 h), the IC50 turned out to be 768 nM. The IC50 in data set [2] came out at 111 nM. In data set [3], the IC50 worked out at 1.65 nM and the JAK1/TYK2 selectivity turned out to be 67.1. Besides, in data set [4], the microsomal CLint at 1 µM came to 12.3 µL/min/mg and the half-life at 1 µM amounted to 1.88 h.
Turning to `COC(=O)c1cnc(NC(=O)C2CC2)cc1Nc1nn(C)c2ccc(C(O)C(F)(F)F)c(OC)c12` (stereo not shown) [Example 48, Methyl 6-(cyclopropanecarboxamido)-4-((4-methoxy-1-methyl-5-(2,2,2-trifluoro-1-hydroxyethyl)-1H-indazol-3-yl)amino)nicotinate], the IC50 is 2.19 nM in data set [1] (Mus musculus, BaF3, 72 h); 33.6 nM in data set [2]; 0.166 nM in data set [3]. For the same compound, the JAK1/TYK2 selectivity in data set [3] turned out to be 202.69. Moreover, in data set [4], the microsomal CLint at 1 µM stood at 19.3 µL/min/mg. For the same compound, the half-life at 1 µM in data set [4] was determined as 1.2 h.
In the case of `[2H]C([2H])([2H])O[C@@H](c1ccc2c(c(Nc3cc(NC(=O)C4CC4)ncc3C(=O)OC)nn2C([2H])([2H])[2H])c1OC)C(F)(F)F` [Example 53B, Methyl (S)-6-(cyclopropanecarboxamido)-4-((4-methoxy-1-(methyl-d3)-5-(2,2,2-trifluoro-1-(methoxy-d3)ethyl)-1H-indazol-3-yl)amino)nicotinate], the IC50 is 2.84 nM in data set [1] (Mus musculus, BaF3, 72 h) and 0.15 nM in data set [3]. Besides, in data set [4], the microsomal CLint at 1 µM was 13.2 µL/min/mg. In data set [4], the half-life at 1 µM stood at 1.75 h.
The matching figures for `COC(=O)c1cnc(NC(=O)C2CC2)cc1Nc1nsc2ccc(C(OC)C(F)(F)F)c(OC)c12` (stereo not shown) [Example 67, Methyl 6-(cyclopropanecarboxamido)-4-((4-methoxy-5-(2,2,2-trifluoro-1-methoxyethyl)benzo[d]isothiazol-3-yl)amino)nicotinate]: 2.5 nM, 0.15 nM, 18.3 µL/min/mg and 1.26 h.
In the case of `[2H]C([2H])([2H])OC(c1ccc2c(c(Nc3cc(NC(=O)C4CC4)ncc3C(=O)OC)nn2C([2H])([2H])[2H])c1OC)C(F)F` (stereo not shown) [Example 102, Methyl 6-(cyclopropanecarboxamido)-4-((5-(2,2-difluoro-1-(methoxy-d3)ethyl)-4-methoxy-1-(methyl-d3)-1H-indazol-3-yl)amino)nicotinate], the IC50 in data set [1] (Mus musculus, BaF3, 72 h) was determined as 3.9 nM. For the same compound, the IC50 in data set [2] amounted to 18.5 nM. Further, in data set [3], the IC50 amounted to 0.19 nM and the JAK1/TYK2 selectivity turned out to be 99.81. In data set [4], the microsomal CLint at 1 µM was 29.8 µL/min/mg and the half-life at 1 µM was determined as 0.776 h.
Consider `[2H]C([2H])(C)C(=O)c1cnc(NC(=O)C2CC2)cc1Nc1nn(C)c2ccc(C(O)C(F)(F)F)c(OC)c12` (stereo not shown) [Example 156, N-(4-((4-methoxy-1-methyl-5-(2,2,2-trifluoro-1-hydroxyethyl)-1H-indazol-3-yl)amino)-5-(propanoyl-2,2-d2)pyridin-2-yl)cyclopropanecarboxamide], for which the IC50 in data set [1] (Mus musculus, BaF3, 72 h) was 1.76 nM; in data set [2], 14.2 nM; in data set [3] it was 0.163 nM. Also, in data set [3], the JAK1/TYK2 selectivity turned out to be 86.87. Moreover, the microsomal CLint at 1 µM in data set [4] was determined as 26.2 µL/min/mg. The half-life at 1 µM in data set [4] worked out at 0.881 h.
As to `[2H]C([2H])([2H])OC(c1ccc2c(c(Nc3cc(NC(=O)C4CC4)ncc3C(=O)OC)nn2CCOC)c1OC)C(F)(F)F` (stereo not shown) [Example 157, Methyl 6-(cyclopropanecarboxamido)-4-((4-methoxy-1-(2-methoxyethyl)-5-(2,2,2-trifluoro-1-(methoxy-d3)ethyl)-1H-indazol-3-yl)amino)nicotinate], the IC50 in data set [1] stood at 9.21 nM. Besides, in data set [3], the IC50 was 0.15 nM. In addition, in data set [4], the microsomal CLint at 1 µM came out at 25.8 µL/min/mg and the half-life at 1 µM is 0.897 h.
For the compound `CNC(=O)c1cnc(NC(=O)C2CC2)cc1Nc1nn(C)c2ccc([C@H](O)C(F)(F)F)c(OC)c12` [Example 189, (S)-6-(Cyclopropanecarboxamido)-4-((4-methoxy-1-methyl-5-(2,2,2-trifluoro-1-hydroxyethyl)-1H-indazol-3-yl)amino)-N-methylnicotinamide], the IC50 in data set [1] (Mus musculus, BaF3, 72 h) was 0.119 nM; in data set [2], 3.5 nM; in data set [3] it was 0.054 nM. Moreover, in data set [3], the JAK1/TYK2 selectivity stood at 64.91.
The like results for `CNC(=O)c1cnc(NC(=O)C2CC2)cc1Nc1nn(C)c2ccc([C@H](OC)C(F)(F)F)c(OC)c12` [Example 190, (S)-6-(Cyclopropanecarboxamido)-4-((4-methoxy-1-methyl-5-(2,2,2-trifluoro-1-methoxyethyl)-1H-indazol-3-yl)amino)-N-methylnicotinamide] were, in that order, 0.196 nM, 1.95 nM, 0.076 nM and 25.71.
For `[2H]C([2H])([2H])NC(=O)c1cnc(NC(=O)C2CC2)cc1Nc1nn(C)c2ccc(C(C)C(F)(F)F)c(OC)c12` (stereo not shown) [Example 191, 6-(Cyclopropanecarboxamido)-4-((4-methoxy-1-methyl-5-(1,1,1-trifluoropropan-2-yl)-1H-indazol-3-yl)amino)-N-(methyl-d3)nicotinamide], the IC50 was determined as 2.51 nM in data set [1] (Mus musculus, BaF3, 72 h); 5.96 nM in data set [2]; 0.132 nM in data set [3]. Also, in data set [3], the JAK1/TYK2 selectivity is recorded as 45.15.
As to `[2H]C([2H])([2H])NC(=O)c1cnc(NC(=O)[C@@H]2C[C@@H]2F)cc1Nc1nn(C)c2ccc([C@H](O)C(F)(F)F)c(OC)c12` [Example 194, 6-((1S,2S)-2-Fluorocyclopropane-1-carboxamido)-4-((4-methoxy-1-methyl-5-((S)-2,2,2-trifluoro-1-hydroxyethyl)-1H-indazol-3-yl)amino)-N-(methyl-d3)nicotinamide], the IC50 in data set [1] (Mus musculus, BaF3, 72 h) stood at 0.241 nM; in data set [2] it was 3.9 nM; in data set [3], 0.08 nM. Moreover, the JAK1/TYK2 selectivity in data set [3] came to 48.8.
